The values below are quoted from earlier work in patent publication US8703823B2, “Methods for treatment of migraine and symptoms thereof” (priority 2004, dated 2014).

The conditions of data set [1]: in vivo.
The conditions of data set [2]: individuals treated with trimethobenzamide for uncontrolled vomiting.

Consider `CCN(CC)CCNC(=O)c1cc(Cl)c(N)cc1OC` [Metoclopramide, metoclopramide], for which, in data set [1], the “Migraine prevention / antimigraine effect” value was “exerted an antimigraine effect”.
As to `COc1cc(C(=O)NCc2ccc(OCCN(C)C)cc2)cc(OC)c1OC.Cl` [trimethobenzamide, N-[p-[2-(dimethylamino)ethoxy]benzyl]-3,4,5-trimethoxybenzamide monohydrochloride], the “Occurrence of adverse diskinesia side effects” value in data set [2] is under 2%.
Take `COc1cc(N)c(Cl)cc1C(=O)NC1CCN(CCCOc2ccc(F)cc2)CC1OC` (stereo not drawn) [cisapride]: the “Migraine prevention / antimigraine effect” value in data set [1] is listed as “ineffective”.
